Test results from US7138361B2, “Herbicidal heterocycles” (E. I. du Pont de Nemours and Company, priority 2000, dated 2006).

Key:
Format in all cases: in vivo
[1] = test system: rice (Oryza saliva); test: Test C flooded paddy test; conditions: for Rice plant response rating: Flooded Paddy, scale 0 to 100, 0 no effect, 100 complete control; for Plant response rating, Rice: flooded paddy test, scale 0 to 100 (0 no effect, 100 complete control)
Method in brief: (§1)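 Greenhouse-maintained for 12 to 14 days after treatment, the paddy plants (2-leaf stage at application) were scored visually against controls. A score of 0 denotes no effect and a score of 100 denotes complete control.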

[2] = test system: barnyardgrass (Echinochloa crus-galli); test: Test C flooded paddy test; conditions: for Barnyardgrass plant response rating: Flooded Paddy, scale 0 to 100, 0 no effect, 100 complete control; for Plant response rating, Barnyardgrass: flooded paddy test, scale 0 to 100 (0 no effect, 100 complete control)
Method in brief: as §1

[3] = test system: Sunflower; test: Test C preemergence; conditions: Rate 250 g/ha, visual evaluation after 12 to 14 days
[4] = test system: Nightshade; test: Test C preemergence
[5] = test system: Sunflower; test: Test C preemergence
[6] = test system: velvetleaf (Abutilon theophrasti); test: Test C preemergence
Method in brief: (§2)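 Formulation: non-phytotoxic solvent mix incl. surfactant. Pre: applied right after planting. Post: 1–4-leaf seedlings. Read: visual 0–100, day 12–14, greenhouse.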

[7] = test system: woolly cupgrass (Eriochloa villosa); test: Test C preemergence
Method in brief: as §2

[8] = test system: soybean (Glycine max); test: Test C preemergence
Method in brief: as §2

[9] = test system: giant foxtail (Setaria faberii); test: Test C preemergence
Method in brief: as §2

[10] = test system: pigweed (Amaranthus retroflexus); test: Test C preemergence
Method in brief: as §2

[11] = test system: goosegrass (Eleusine indica); test: Test C preemergence
Method in brief: as §2

[12] = test system: yellow nutsedge (Cyperus esculentus); test: Test C preemergence
Method in brief: as §2

[13] = test system: johnsongrass (Sorghum halepense); test: Test C preemergence
Method in brief: as §2

[14] = test system: common ragweed (Ambrosia elatior); test: Test C preemergence
Method in brief: as §2

[15] = test system: cocklebur (Xanthium strumarium); test: Test C preemergence
Method in brief: as §2

[16] = test system: kochia (Kochia scoparia); test: Test C preemergence
Method in brief: as §2

[17] = test system: corn (Zea mays); test: Test C preemergence
Method in brief: as §2

[18] = test system: Surinam grass (Brachiaria decumbens); test: Test C preemergence
Method in brief: as §2

[19] = test system: bermudagrass (Cynodon dactylon); test: Test C preemergence
Method in brief: as §2

[20] = test system: morningglory (Ipomoea hederacea); test: Test C preemergence
Method in brief: as §2

[21] = test system: crabgrass (Digitaria sanguinalis); test: Test C preemergence
Method in brief: as §2

[22] = test system: lambsquarters (Chenopodium album); test: Test C preemergence
Method in brief: as §2

[23] = Rate 62 g/ha, scale 0 to 100, 0 no effect, 100 complete control
[24] = Preemergence, Rate 500 g/ha, scale 0 to 100
[25] = preemergence, Rate 250 g/ha, visual evaluation after 12 to 14 days
[26] = preemergence, Rate 125 g/ha, scale 0 to 100, 0 no effect, 100 complete control

O=C1C(n2ccc(C3CCC3)n2)OCN1c1cccc(C(F)(F)F)c1 (centres unmarked) [Compound 39]
0: Rice plant response rating ([1]; Rate 250 g/ha) | Plant response rating, Rice ([1]; Rate 62 g/ha) | Plant response rating, Rice ([1]; Rate 125 g/ha) | Plant response rating (0 to 100), Sunflower [3] | Plant response rating, Nightshade [4, 23] | Plant response rating, Nightshade ([4]; Rate 125 g/ha, scale 0 to 100, 0 no effect, 100 complete control) | Plant response rating, Nightshade ([4]; Rate 500 g/ha, scale 0 to 100) | Plant response rating, Sunflower [5, 23] | Plant response rating, Sunflower ([5]; Rate 500 g/ha, scale 0 to 100) | Plant response rating, Velvetleaf [6, 24] | Plant response rating, Velvetleaf [6, 23] | Plant response rating (0 to 100), Velvetleaf [6, 25] | Plant response rating, Velvetleaf [6, 26] | Plant response rating, Cupgrass, Woolly [7, 23] | Plant response rating, Soybean [8, 24] | Plant response rating, Soybean [8, 23] | Plant response rating (0 to 100), Soybean [8, 25] | Plant response rating, Soybean [8, 26] | Plant response rating, Foxtail, Giant [9, 23] | Plant response rating (0 to 100), Foxtail, Giant [9, 25] | Plant response rating, Foxtail, Giant [9, 26] | Plant response rating, Pigweed [10, 23] | Plant response rating (0 to 100), Pigweed [10, 25] | Plant response rating, Pigweed [10, 26] | Plant response rating, Nutsedge [12, 23] | Plant response rating (0 to 100), Nutsedge [12, 25] | Plant response rating, Nutsedge [12, 26] | Plant response rating, Johnsongrass [13, 23] | Plant response rating, Johnsongrass [13, 26] | Plant response rating, Ragweed, Common [14, 23] | Plant response rating (0 to 100), Ragweed, Common [14, 25] | Plant response rating, Ragweed, Common [14, 26] | Plant response rating, Cocklebur [15, 24] | Plant response rating, Cocklebur [15, 23] | Plant response rating, Kochia [16, 23] | Plant response rating, Corn [17, 23] | Plant response rating (0 to 100), Corn [17, 25] | Plant response rating, Corn [17, 26] | Plant response rating, Surinam grass [18, 23] | Plant response rating (0 to 100), Surinam grass [18, 25] | Plant response rating, Surinam grass [18, 26] | Plant response rating, Morningglory [20, 24] | Plant response rating, Morningglory [20, 23] | Plant response rating (0 to 100), Morningglory [20, 25] | Plant response rating, Morningglory [20, 26]
20: Plant response rating, Cupgrass, Woolly [7, 26] | Plant response rating, Ragweed, Common [14, 24]
70: Rice plant response rating ([1]; Rate 500 g/ha) | Plant response rating (0 to 100), Johnsongrass [13, 25] | Plant response rating (0 to 100), Kochia [16, 25] | Plant response rating, Corn [17, 24]
100: Barnyardgrass plant response rating ([2]; Rate 250 g/ha) | Barnyardgrass plant response rating ([2]; Rate 500 g/ha) | Plant response rating, Cupgrass, Woolly [7, 24] | Plant response rating, Foxtail, Giant [9, 24] | Plant response rating, Pigweed [10, 24] | Plant response rating, Goosegrass [11, 24] | Plant response rating (0 to 100), Goosegrass [11, 25] | Plant response rating, Bermudagrass [19, 24] | Plant response rating (0 to 100 where 0 is no effect and 100 is complete control), Bermudagrass [19, 25] | Plant response rating, Crabgrass [21, 24] | Plant response rating (0 to 100), Crabgrass [21, 25] | Plant response rating, Crabgrass [21, 26] | Plant response rating, Lambsquarters [22, 24] | Plant response rating, Lambsquarters [22, 23] | Plant response rating (0 to 100), Lambsquarters [22, 25] | Plant response rating, Lambsquarters [22, 26]
50: Plant response rating, Kochia [16, 26]
40: Plant response rating, Nutsedge [12, 24]
80: Plant response rating, Barnyardgrass ([2]; Rate 62 g/ha) | Plant response rating, Barnyardgrass ([2]; Rate 125 g/ha) | Plant response rating, Goosegrass [11, 23] | Plant response rating, Surinam grass [18, 24]
90: Plant response rating (0 to 100), Cupgrass, Woolly [7, 25] | Plant response rating, Goosegrass [11, 26] | Plant response rating, Johnsongrass [13, 24] | Plant response rating, Kochia [16, 24] | Plant response rating, Bermudagrass [19, 23] | Plant response rating, Bermudagrass [19, 26] | Plant response rating, Crabgrass [21, 23]
